Here are results for 3 compounds from article PMC6437697 (Journal of Medicinal Chemistry, 2019).

What all share (assay): KINOMEscan
What all share (assay type): binding
Common to all, as to conditions: read-out: % control activity remaining

One experiment concerns the target T1, RET (Homo sapiens, UniProt P07949).
T1 construct: purchased Eurofins DiscoverX KINOMEscan

The next experiment addresses T2, SRC (Homo sapiens, UniProt P12931).
T2 construct: purchased Eurofins DiscoverX KINOMEscan

In the next experiment the target is T3, PIM2 (Homo sapiens, UniProt Q9P1W9).
T3 construct: purchased Eurofins DiscoverX KINOMEscan
T3 sequence (Q9P1W9 whole entry): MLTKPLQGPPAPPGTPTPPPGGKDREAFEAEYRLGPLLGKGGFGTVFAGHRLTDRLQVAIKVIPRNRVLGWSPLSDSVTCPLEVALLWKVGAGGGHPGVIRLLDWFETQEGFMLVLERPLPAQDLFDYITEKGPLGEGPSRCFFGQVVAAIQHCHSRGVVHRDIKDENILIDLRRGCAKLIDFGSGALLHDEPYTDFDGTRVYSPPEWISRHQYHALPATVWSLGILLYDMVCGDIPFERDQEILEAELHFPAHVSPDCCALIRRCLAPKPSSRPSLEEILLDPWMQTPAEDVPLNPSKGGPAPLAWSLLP

In the next experiment the target is T4, PIK3C2B (Homo sapiens, UniProt O00750).
T4 construct: purchased Eurofins DiscoverX KINOMEscan

Another experiment has as its target T5, TLK2 (Homo sapiens, UniProt Q86UE8).
T5 construct: purchased Eurofins DiscoverX KINOMEscan

The target of a further experiment is T6, LKB1 (Homo sapiens, UniProt Q15831).
T6 construct: purchased Eurofins DiscoverX KINOMEscan
T6 sequence (Q15831 1-433): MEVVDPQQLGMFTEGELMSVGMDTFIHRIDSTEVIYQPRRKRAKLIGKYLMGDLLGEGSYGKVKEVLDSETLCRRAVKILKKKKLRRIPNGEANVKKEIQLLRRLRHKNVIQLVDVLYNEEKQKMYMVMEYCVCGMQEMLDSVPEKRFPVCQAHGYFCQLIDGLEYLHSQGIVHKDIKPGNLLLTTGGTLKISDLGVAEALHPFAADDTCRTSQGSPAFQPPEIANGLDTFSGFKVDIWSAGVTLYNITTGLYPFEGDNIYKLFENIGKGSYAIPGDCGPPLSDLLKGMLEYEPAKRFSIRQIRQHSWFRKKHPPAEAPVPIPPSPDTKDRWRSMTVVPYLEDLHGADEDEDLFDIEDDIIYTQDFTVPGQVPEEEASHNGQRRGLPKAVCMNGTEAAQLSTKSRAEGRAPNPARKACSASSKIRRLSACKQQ

Another experiment concerns the target T7, SRMS (Homo sapiens, UniProt Q9H3Y6).
T7 construct: purchased Eurofins DiscoverX KINOMEscan

Another experiment deals with T8, PLK2 (Homo sapiens, UniProt Q9NYY3).
T8 construct: purchased Eurofins DiscoverX KINOMEscan
T8 sequence (Q9NYY3 whole entry): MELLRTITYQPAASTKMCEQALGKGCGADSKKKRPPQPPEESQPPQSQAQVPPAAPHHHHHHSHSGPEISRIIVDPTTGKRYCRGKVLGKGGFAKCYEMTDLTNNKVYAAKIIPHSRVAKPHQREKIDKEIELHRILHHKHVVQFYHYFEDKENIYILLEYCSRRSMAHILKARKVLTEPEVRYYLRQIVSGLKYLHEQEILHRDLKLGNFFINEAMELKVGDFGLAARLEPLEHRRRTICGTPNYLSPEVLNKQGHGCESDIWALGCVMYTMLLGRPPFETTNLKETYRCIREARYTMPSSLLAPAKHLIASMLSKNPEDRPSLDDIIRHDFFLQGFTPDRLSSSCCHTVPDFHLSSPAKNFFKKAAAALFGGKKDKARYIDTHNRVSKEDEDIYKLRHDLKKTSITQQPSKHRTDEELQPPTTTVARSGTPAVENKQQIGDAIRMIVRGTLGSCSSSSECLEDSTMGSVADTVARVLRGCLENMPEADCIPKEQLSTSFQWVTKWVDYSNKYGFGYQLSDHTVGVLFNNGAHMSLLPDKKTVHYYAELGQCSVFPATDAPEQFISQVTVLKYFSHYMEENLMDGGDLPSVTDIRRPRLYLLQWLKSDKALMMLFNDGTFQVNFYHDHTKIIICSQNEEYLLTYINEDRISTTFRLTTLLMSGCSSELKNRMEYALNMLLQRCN

A further experiment concerns the target T9, CDK7 (Homo sapiens, UniProt P50613).
T9 construct: purchased Eurofins DiscoverX KINOMEscan

The target of another experiment is T10, ABL1-phosphorylated (Homo sapiens, UniProt P00519).
T10 construct: purchased Eurofins DiscoverX KINOMEscan

For experiment [1], the target named is T11, RSK2(Kin.Dom.2-C-terminal) (Homo sapiens, UniProt P51812).
T11 construct: RSK2(Kin.Dom.2-C-terminal); purchased Eurofins DiscoverX KINOMEscan

The target of the next experiment is T12, TRKA (Homo sapiens, UniProt P04629).
T12 construct: purchased Eurofins DiscoverX KINOMEscan

The target in the next experiment is T13, MAP4K4 (Homo sapiens, UniProt O95819).
T13 construct: purchased Eurofins DiscoverX KINOMEscan
T13 sequence (O95819 whole entry): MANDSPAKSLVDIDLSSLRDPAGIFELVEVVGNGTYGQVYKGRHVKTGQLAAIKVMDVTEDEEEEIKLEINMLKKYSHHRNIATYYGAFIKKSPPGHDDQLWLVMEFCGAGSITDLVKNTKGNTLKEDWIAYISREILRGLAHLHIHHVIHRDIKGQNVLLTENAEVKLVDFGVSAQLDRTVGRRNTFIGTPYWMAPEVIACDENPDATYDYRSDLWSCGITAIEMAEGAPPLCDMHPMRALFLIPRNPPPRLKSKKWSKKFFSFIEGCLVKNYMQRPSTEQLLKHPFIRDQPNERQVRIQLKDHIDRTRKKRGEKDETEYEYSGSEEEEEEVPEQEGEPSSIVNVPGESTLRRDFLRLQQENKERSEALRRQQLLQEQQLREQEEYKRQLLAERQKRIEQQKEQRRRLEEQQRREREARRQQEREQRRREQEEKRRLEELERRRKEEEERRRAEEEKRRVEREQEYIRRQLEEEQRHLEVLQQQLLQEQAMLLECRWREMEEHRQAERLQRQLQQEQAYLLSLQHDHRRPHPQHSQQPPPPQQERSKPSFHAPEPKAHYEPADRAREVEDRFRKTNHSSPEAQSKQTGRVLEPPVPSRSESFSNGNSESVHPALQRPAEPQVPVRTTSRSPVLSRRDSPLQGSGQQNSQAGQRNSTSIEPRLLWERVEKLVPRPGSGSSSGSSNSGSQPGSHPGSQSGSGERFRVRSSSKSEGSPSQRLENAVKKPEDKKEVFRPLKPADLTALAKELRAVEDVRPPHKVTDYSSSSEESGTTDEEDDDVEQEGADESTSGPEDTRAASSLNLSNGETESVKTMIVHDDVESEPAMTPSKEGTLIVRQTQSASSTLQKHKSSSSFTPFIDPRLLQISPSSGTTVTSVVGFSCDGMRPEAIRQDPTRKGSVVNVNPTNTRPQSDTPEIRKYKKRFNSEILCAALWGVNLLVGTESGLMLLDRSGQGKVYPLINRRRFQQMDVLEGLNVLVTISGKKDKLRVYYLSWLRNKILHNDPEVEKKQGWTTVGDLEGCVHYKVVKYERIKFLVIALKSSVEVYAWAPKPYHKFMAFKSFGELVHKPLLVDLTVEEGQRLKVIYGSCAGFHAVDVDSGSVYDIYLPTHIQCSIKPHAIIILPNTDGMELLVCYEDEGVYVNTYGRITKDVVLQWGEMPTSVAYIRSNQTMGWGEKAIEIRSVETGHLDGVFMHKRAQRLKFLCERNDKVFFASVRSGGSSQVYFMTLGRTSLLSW

A further experiment addresses T14, TAK1 (Homo sapiens, UniProt O43318).
T14 construct: purchased Eurofins DiscoverX KINOMEscan
T14 sequence (O43318 1-606): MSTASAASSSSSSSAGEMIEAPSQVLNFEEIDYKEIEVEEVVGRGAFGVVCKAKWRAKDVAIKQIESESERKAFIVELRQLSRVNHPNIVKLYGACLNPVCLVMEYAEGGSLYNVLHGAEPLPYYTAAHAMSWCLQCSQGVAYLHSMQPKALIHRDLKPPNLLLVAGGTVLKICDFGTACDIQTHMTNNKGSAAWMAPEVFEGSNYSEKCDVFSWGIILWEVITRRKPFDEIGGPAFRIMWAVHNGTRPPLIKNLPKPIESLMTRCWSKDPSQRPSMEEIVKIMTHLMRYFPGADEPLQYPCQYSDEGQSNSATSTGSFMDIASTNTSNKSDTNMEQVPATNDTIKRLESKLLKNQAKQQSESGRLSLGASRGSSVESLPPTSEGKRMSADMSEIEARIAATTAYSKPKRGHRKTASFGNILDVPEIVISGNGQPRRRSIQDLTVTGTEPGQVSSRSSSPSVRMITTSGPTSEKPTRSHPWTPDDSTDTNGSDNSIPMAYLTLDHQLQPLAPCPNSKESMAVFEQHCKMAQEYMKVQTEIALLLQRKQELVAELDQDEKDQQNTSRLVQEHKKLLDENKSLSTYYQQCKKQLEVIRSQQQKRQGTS

A further experiment deals with T15, EGFR(T790M) (Homo sapiens, UniProt P00533, T790M).
T15 construct: purchased Eurofins DiscoverX KINOMEscan
T15 sequence (P00533 25-1210 T790M limits assumed): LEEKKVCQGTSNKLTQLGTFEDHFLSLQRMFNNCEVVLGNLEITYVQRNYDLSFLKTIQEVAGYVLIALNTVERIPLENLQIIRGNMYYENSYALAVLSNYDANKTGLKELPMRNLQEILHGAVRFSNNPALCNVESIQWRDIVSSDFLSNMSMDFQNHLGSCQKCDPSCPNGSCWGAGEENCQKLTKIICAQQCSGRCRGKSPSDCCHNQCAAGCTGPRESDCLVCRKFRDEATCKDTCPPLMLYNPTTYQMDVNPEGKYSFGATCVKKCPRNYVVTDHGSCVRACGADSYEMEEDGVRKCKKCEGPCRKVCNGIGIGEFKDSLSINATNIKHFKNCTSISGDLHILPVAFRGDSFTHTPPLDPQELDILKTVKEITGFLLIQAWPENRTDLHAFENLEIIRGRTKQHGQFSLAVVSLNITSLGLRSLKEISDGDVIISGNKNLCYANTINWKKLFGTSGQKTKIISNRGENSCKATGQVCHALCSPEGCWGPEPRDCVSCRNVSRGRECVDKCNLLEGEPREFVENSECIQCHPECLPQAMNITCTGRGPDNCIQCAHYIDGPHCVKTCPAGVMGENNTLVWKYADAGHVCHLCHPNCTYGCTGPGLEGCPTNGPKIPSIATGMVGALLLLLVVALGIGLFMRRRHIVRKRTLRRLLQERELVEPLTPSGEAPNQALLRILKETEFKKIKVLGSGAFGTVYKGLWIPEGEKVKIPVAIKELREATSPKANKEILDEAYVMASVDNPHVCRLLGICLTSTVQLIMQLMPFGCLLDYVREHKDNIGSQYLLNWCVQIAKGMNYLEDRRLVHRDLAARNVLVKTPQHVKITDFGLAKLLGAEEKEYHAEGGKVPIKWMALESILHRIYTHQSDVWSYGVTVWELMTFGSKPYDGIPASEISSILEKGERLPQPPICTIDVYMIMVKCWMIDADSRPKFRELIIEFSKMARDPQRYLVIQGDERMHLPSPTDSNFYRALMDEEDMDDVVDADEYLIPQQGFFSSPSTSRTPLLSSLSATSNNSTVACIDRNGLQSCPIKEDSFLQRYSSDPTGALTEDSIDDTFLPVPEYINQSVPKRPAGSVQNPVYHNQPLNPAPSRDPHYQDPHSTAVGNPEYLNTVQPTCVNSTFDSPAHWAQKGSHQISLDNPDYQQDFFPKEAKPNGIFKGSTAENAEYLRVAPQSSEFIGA

The next experiment addresses T16, EGFR(L747-T751del,Sins) (Homo sapiens, UniProt P00533, DEL747-750/T751S).
T16 construct: purchased Eurofins DiscoverX KINOMEscan

For another experiment, the target named is T17, JNK3 (Homo sapiens, UniProt P53779).
T17 construct: purchased Eurofins DiscoverX KINOMEscan

The target in a further experiment is T18, PIM3 (Homo sapiens, UniProt Q86V86).
T18 construct: purchased Eurofins DiscoverX KINOMEscan

For the next experiment, the target named is T19, GCN2(Kin.Dom.2,S808G) (Homo sapiens, UniProt Q9P2K8, S808G).
T19 construct: GCN2(Kin.Dom.2,S808G); purchased Eurofins DiscoverX KINOMEscan
T19 sequence (Q9P2K8 590-1001 S808G limits assumed): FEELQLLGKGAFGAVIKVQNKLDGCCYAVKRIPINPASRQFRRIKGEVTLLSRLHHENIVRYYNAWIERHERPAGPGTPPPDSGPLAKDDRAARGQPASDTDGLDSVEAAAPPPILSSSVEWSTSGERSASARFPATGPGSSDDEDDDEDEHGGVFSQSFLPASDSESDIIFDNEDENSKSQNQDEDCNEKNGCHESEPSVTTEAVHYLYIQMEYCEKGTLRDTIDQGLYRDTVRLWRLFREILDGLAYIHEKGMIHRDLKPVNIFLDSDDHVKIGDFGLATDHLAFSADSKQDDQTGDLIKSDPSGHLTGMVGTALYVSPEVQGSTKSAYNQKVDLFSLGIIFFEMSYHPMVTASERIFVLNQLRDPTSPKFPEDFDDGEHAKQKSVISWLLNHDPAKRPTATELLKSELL

The next experiment has as its target T20, PIK3CA(E545K) (Homo sapiens, UniProt P42336, E545K).
T20 construct: purchased Eurofins DiscoverX KINOMEscan

T2 sequence (P12931 whole entry): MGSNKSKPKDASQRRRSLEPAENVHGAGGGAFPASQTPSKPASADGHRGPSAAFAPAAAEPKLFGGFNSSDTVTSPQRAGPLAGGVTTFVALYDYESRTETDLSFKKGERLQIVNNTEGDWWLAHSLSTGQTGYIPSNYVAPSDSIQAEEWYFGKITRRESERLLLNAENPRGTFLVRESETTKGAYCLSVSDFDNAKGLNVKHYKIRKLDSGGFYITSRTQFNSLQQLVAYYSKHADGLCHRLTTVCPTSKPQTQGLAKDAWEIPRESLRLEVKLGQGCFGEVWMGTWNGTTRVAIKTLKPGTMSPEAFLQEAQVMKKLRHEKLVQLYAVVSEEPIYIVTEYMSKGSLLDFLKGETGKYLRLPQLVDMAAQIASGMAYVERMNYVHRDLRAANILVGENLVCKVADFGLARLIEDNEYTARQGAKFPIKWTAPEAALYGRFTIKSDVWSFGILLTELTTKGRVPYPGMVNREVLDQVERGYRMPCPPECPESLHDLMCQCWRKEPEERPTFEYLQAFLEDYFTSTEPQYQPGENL
T1 sequence (P07949 29-1114): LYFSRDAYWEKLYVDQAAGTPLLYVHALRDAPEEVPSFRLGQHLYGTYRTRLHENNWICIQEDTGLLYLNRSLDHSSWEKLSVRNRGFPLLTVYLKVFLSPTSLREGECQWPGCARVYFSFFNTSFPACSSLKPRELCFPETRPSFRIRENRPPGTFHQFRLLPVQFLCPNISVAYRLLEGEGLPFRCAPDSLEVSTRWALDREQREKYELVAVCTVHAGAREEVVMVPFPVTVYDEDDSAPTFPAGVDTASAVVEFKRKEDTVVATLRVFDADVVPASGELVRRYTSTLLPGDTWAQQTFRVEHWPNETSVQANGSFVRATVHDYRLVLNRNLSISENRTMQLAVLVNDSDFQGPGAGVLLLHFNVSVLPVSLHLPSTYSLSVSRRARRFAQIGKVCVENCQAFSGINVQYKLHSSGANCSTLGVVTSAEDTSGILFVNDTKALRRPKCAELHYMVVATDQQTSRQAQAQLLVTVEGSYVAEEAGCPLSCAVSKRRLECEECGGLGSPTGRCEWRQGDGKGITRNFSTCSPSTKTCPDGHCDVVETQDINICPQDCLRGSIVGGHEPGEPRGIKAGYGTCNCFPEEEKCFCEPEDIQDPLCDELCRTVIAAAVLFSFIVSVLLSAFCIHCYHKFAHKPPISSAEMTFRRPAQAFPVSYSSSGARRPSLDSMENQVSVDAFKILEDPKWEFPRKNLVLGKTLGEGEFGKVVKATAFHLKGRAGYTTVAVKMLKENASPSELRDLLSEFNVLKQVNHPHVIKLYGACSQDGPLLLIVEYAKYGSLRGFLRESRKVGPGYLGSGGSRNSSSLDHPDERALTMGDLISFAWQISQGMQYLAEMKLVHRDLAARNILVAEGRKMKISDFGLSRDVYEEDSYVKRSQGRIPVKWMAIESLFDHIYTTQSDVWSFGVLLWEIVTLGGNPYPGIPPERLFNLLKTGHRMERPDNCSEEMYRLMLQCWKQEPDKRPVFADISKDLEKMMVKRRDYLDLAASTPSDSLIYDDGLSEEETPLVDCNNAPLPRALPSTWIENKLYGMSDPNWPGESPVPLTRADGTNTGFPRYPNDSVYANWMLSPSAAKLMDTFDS

Turning to `Clc1cc(NCC2CC2)c2ncc(-c3ccc4[nH]ncc4c3)n2n1` [compound 2, 6-Chloro-N-(cyclopropylmethyl)-3-(1H-indazol-5-yl)imidazo[1,2-b]pyridazin-8-amine], the remaining binding at 1 µM at RET worked out at 100%; on SRC, 100%; at PIM2 it was 100%; at PIK3C2B it was 86%; at TLK2, 98%; on LKB1 it was 52%. In addition, the remaining binding at 1 µM at SRMS was 91%; at PLK2, 66%; on CDK7 it was 68%; on ABL1-phosphorylated it was 94%; in experiment [1] it was 89%; on TRKA, 89%. In addition, the remaining binding at 1 µM on MAP4K4 is 92%; at TAK1, 91%; at EGFR(T790M) it was 92%; on EGFR(L747-T751del,Sins) it was 88%; on JNK3, 89%; on PIM3 it was 95%. The remaining binding at 1 µM at GCN2(Kin.Dom.2,S808G) worked out at 93%; at PIK3CA(E545K), 75%.

Turning to `O=C(CN1CCOCC1)N[C@H]1CC[C@H](Nc2cc(Cl)nn3c(-c4ccc5[nH]ncc5c4)cnc23)CC1` [compound 26], the remaining binding at 1 µM on RET was found to be 100%; on SRC it was 100%; on PIM2 it was 100%; on PIK3C2B, 97%; on TLK2, 95%; on LKB1, 98%. The remaining binding at 1 µM came out at 86% on SRMS; 100% at PLK2; 16% on CDK7; 54% at ABL1-phosphorylated; 100% in experiment [1]; 19% on TRKA. Moreover, the remaining binding at 1 µM on MAP4K4 turned out to be 75%; at TAK1, 47%; on EGFR(T790M), 100%; on EGFR(L747-T751del,Sins), 96%; at JNK3, 79%; at PIM3, 71%. Further, the remaining binding at 1 µM on GCN2(Kin.Dom.2,S808G) was determined as 97%; at PIK3CA(E545K) it was 80%.

Take `CN1CCC(CNc2cc(Cl)nn3c(-c4cc5nc(Nc6ccccc6)[nH]c5cc4F)cnc23)CC1` [compound 31, 6-Chloro-3-(6-fluoro-2-(phenylamino)-1H-benzo[d]imidazol-5-yl)-N-((1-methylpiperidin-4-yl)methyl)imidazo[1,2-b]pyridazin-8-amine]: the remaining binding at 1 µM on RET was determined as 96%; at SRC, 100%; on PIM2, 100%; at PIK3C2B, 100%; on TLK2, 89%; on LKB1, 77%. Besides, the remaining binding at 1 µM was determined as 95% at SRMS; 90% on PLK2; 61% at CDK7; 81% at ABL1-phosphorylated; 73% in [1]; 96% at TRKA. In addition, the remaining binding at 1 µM on MAP4K4 was 100%; on TAK1 it was 65%; at EGFR(T790M), 100%; at EGFR(L747-T751del,Sins), 92%; at JNK3 it was 99%; at PIM3, 92%. For the same compound, the remaining binding at 1 µM at GCN2(Kin.Dom.2,S808G) was found to be 77%; at PIK3CA(E545K), 68%.
